# Measurements taken from paper PMC12090182, “Repurposing of the RIPK1-Selective Benzo[1,4]oxazepin-4-one Scaffold for the Development of a Type III LIMK1/2 Inhibitor” (ACS Chemical Biology, 2025).
# Read-outs that look alike come from different tables or passages of the source.
# Key:
# Assay type in all cases: cell-based
# MRC-9 cells = experiment: Multiplex high-content viability assessment; details: 10 µM, human fibroblast
# Experimental: (§1) To assess the influence on cell health, a high-content screening in living cells called the multiplex high-content assay, as described previously by Tjaden et al., was performed.[38] In brief, HEK293T (ATCC CRL-1573) and U2OS (ATCCHTB-96) were cultured in DMEM plus L-glutamine (high glucose) supplemented by 10% FBS (Gibco) and penicillin/streptomycin (Gibco). MRC-9 fibroblasts ([…]) were cultured in EMEM plus L-glutamine supplemented by 10% FBS (Gibco) and penicillin/streptomycin (Gibco). Cells were seeded at a density of 1250 cells per well in a 384-well plate in a culture medium (cell culture microplate, PS, f-bottom, μClear, 781091, Greiner), with a volume of 50 μL per well. All outer wells were filled with 100 μL of PBS buffer (Gibco). […] The cell shape and fluorescence were measured before treatment and 12, 24, and 48 h after compound treatment using the CQ1 high-content confocal microscope (Yokogawa, Musashino, Japan). […] The compounds were tested at 1 and 10 μM, respectively. Acquired images of the cells were processed using Yokogawa CellPathfinder software (v3.04.02.02). […] Results were normalized to cells exposed to 0.1% DMSO. All compounds were tested in biological duplicates, and SEM (standard error of mean) was calculated of biological duplicates.
# U2OS cells = details: human, 24 h, 1 µM
# Experimental: as §1
# HEK293T cells = details: human
# Experimental: as §1
# [1] = 0 h after treatment, biological replicate 2
# [2] = 12 h after treatment, biological replicate 2
# [3] = 24 h after treatment, biological replicate 2
# [4] = 48 h after treatment, biological replicate 2
structure (smiles),measurement,setting,value
CCCCN(Cc1ccccc1)C(=O)c1ccc(S(=O)(=O)Nc2ccccc2)cc1 [TH257],Population Fragmented Nuclei (%),"MRC-9 cells; 0 h, biological replicate 1",18.47%
same,Population Healthy Nuclei (%),"MRC-9 cells; 0 h, biological replicate 1",59.24%
same,Population Pyknosed Nuclei (%),"MRC-9 cells; 0 h, biological replicate 1",22.29%
same,Population apoptotic cell (%),"MRC-9 cells; 0 h, biological replicate 1",34.29%
same,Population cell that influence microtubule strucutre (%),"MRC-9 cells; 0 h, biological replicate 1",23.66%
same,Population with increased mitochondrial mass (%),"MRC-9 cells; 0 h, biological replicate 1",3.23%
same,Population with membrane disruption (%),"MRC-9 cells; 0 h, biological replicate 1",0.00%
same,Cell count normalized to cells treated with DMSO control,"MRC-9 cells; 12 h, biological replicate 1",1.149
same,Cell count per well,"MRC-9 cells; 12 h, biological replicate 1",173
same,Population Fragmented Nuclei (%),"MRC-9 cells; 12 h, biological replicate 1",12.35%
same,Population Healthy Nuclei (%),"MRC-9 cells; 12 h, biological replicate 1",58.02%
same,Population Pyknosed Nuclei (%),"MRC-9 cells; 12 h, biological replicate 1",29.63%
same,Population apoptotic cell (%),"MRC-9 cells; 12 h, biological replicate 1",35.42%
same,Population cell that influence microtubule strucutre (%),"MRC-9 cells; 12 h, biological replicate 1",80.85%
same,Population with increased mitochondrial mass (%),"MRC-9 cells; 12 h, biological replicate 1",13.83%
same,Population with membrane disruption (%),"MRC-9 cells; 12 h, biological replicate 1",4.26%
same,Cell count normalized to cells treated with DMSO control,"MRC-9 cells; 24 h, biological replicate 1",1.094
same,Cell count per well,"MRC-9 cells; 24 h, biological replicate 1",165
same,Population Fragmented Nuclei (%),"MRC-9 cells; 24 h, biological replicate 1",16.25%
same,Population Healthy Nuclei (%),"MRC-9 cells; 24 h, biological replicate 1",66.25%
same,Population Pyknosed Nuclei (%),"MRC-9 cells; 24 h, biological replicate 1",17.50%
same,Population apoptotic cell (%),"MRC-9 cells; 24 h, biological replicate 1",57.14%
same,Population cell that influence microtubule strucutre (%),"MRC-9 cells; 24 h, biological replicate 1",88.68%
same,Population with increased mitochondrial mass (%),"MRC-9 cells; 24 h, biological replicate 1",11.32%
same,Population with membrane disruption (%),"MRC-9 cells; 24 h, biological replicate 1",1.89%
same,Cell count normalized to cells treated with DMSO control,"MRC-9 cells; 48 h, biological replicate 1",1.18
same,Cell count per well,"MRC-9 cells; 48 h, biological replicate 1",179
same,Population Fragmented Nuclei (%),"MRC-9 cells; 48 h, biological replicate 1",23.84%
same,Population Healthy Nuclei (%),"MRC-9 cells; 48 h, biological replicate 1",63.37%
same,Population Pyknosed Nuclei (%),"MRC-9 cells; 48 h, biological replicate 1",12.79%
same,Population apoptotic cell (%),"MRC-9 cells; 48 h, biological replicate 1",72.73%
same,Population cell that influence microtubule strucutre (%),"MRC-9 cells; 48 h, biological replicate 1",85.32%
same,Population with increased mitochondrial mass (%),"MRC-9 cells; 48 h, biological replicate 1",20.18%
same,Population with membrane disruption (%),"MRC-9 cells; 48 h, biological replicate 1",0.92%
same,Cell count normalized to cells treated with DMSO control,MRC-9 cells; [1],0.8298
same,Cell count per well,MRC-9 cells; [1],148
same,Population Fragmented Nuclei (%),MRC-9 cells; [1],24.82%
same,Population Healthy Nuclei (%),MRC-9 cells; [1],45.39%
same,Population Pyknosed Nuclei (%),MRC-9 cells; [1],29.79%
same,Population apoptotic cell (%),MRC-9 cells; [1],47.62%
same,Population cell that influence microtubule strucutre (%),MRC-9 cells; [1],40.63%
same,Population with increased mitochondrial mass (%),MRC-9 cells; [1],9.38%
same,Population with membrane disruption (%),MRC-9 cells; [1],3.13%
same,Cell count normalized to cells treated with DMSO control,MRC-9 cells; [2],0.8645
same,Cell count per well,MRC-9 cells; [2],144
same,Population Fragmented Nuclei (%),MRC-9 cells; [2],24.46%
same,Population Healthy Nuclei (%),MRC-9 cells; [2],56.83%
same,Population Pyknosed Nuclei (%),MRC-9 cells; [2],18.71%
same,Population apoptotic cell (%),MRC-9 cells; [2],50.00%
same,Population cell that influence microtubule strucutre (%),MRC-9 cells; [2],86.08%
same,Population with increased mitochondrial mass (%),MRC-9 cells; [2],13.92%
same,Population with membrane disruption (%),MRC-9 cells; [2],12.66%
same,Cell count normalized to cells treated with DMSO control,MRC-9 cells; [3],0.8917
same,Cell count per well,MRC-9 cells; [3],147
same,Population Fragmented Nuclei (%),MRC-9 cells; [3],25.18%
same,Population Healthy Nuclei (%),MRC-9 cells; [3],59.71%
same,Population Pyknosed Nuclei (%),MRC-9 cells; [3],15.11%
same,Population apoptotic cell (%),MRC-9 cells; [3],57.14%
same,Population cell that influence microtubule strucutre (%),MRC-9 cells; [3],91.57%
same,Population with increased mitochondrial mass (%),MRC-9 cells; [3],19.28%
same,Population with membrane disruption (%),MRC-9 cells; [3],4.82%
same,Cell count normalized to cells treated with DMSO control,MRC-9 cells; [4],0.964
same,Cell count per well,MRC-9 cells; [4],157
same,Population Fragmented Nuclei (%),MRC-9 cells; [4],30.32%
same,Population Healthy Nuclei (%),MRC-9 cells; [4],59.35%
same,Population Pyknosed Nuclei (%),MRC-9 cells; [4],10.32%
same,Population apoptotic cell (%),MRC-9 cells; [4],56.25%
same,Population cell that influence microtubule strucutre (%),MRC-9 cells; [4],89.13%
same,Population with increased mitochondrial mass (%),MRC-9 cells; [4],18.48%
same,Population with membrane disruption (%),MRC-9 cells; [4],0.00%
same,Cell count per well,U2OS cells,316
same,Population with membrane disruption (%),"HEK293T cells; 0 h, 1 µM",0.00%
same,Population with membrane disruption (%),"HEK293T cells; 0 h, 10 µM",0.00%
same,Population with membrane disruption (%),"HEK293T cells; 24 h, 10 µM",0.00%
